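Compound exposure: 48 hours, 5 concentrations, 96-well plates. GI50 is the concentration that inhibits growth by half. TGI is the concentration that stops growth completely.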
Columns and labels:
Test in all cases: NCI anticancer screen, dose series, 48 h
[1] = tested on: HT29 colon
[2] = tested on: OVCAR-4 ovarian
[3] = tested on: MALME-3M melanoma
[4] = tested on: NCI-H522 lung
[5] = tested on: OVCAR-3 ovarian
[6] = tested on: SN12C renal
[7] = tested on: M14 melanoma
[8] = tested on: OVCAR-5 ovarian
[9] = tested on: KM12 colon
[10] = tested on: NCI-H23 lung
[11] = tested on: EKVX NSCLC
[12] = tested on: UO-31 renal
[13] = tested on: SR leukemia

SMILES: COc1ccc(CNCCN2C(=O)c3ccc4c5c(ccc(c35)C2=O)C(=O)N(CCNCc2ccc(OC)c(OC)c2OC)C4=O)c(OC)c1OC
- GI50 [1]: 164 nM
- TGI [1]: 589 nM
- GI50 [2]: 76.2 nM
- TGI [2]: 146 nM
- GI50 [3]: 112 nM
- TGI [3]: 297 nM
- GI50 [4]: 519 nM
- TGI [4]: 1190 nM
- GI50 [5]: 121 nM
- TGI [5]: 353 nM
- GI50 [6]: 94.2 nM
- TGI [6]: 207 nM

SMILES: C#CCN1C(=O)CN2C(Cl)(Cl)C2(c2ccccc2)c2cc(Cl)ccc21 (stereo not given)
- TGI [7]: > 100000 nM
- TGI [8]: > 100000 nM
- TGI [1]: > 100000 nM
- TGI [2]: > 100000 nM
- TGI [3]: > 100000 nM
- TGI [9]: 94000 nM
- TGI [10]: > 100000 nM
- TGI [4]: 75200 nM
- TGI [11]: > 100000 nM
- TGI [12]: > 100000 nM
- TGI [13]: > 100000 nM
- TGI [5]: > 100000 nM
- TGI [6]: > 100000 nM

— PubChem BioAssay (NCI)
